Test results as given in publication PMC12551991, “Inheritance and enzymatic basis of anthocyanin malonylation in Fragaria × ananassa” (The Plant Journal, 2025).

Assays:
Test in all cases: LC-MS malonyltransferase assay, non-linear Michaelis-Menten fit
Type in all cases: biochemical, Fragaria × ananassa
Details in all cases: potassium phosphate pH 7.0, 30°C, 30 min
[1] = tested on: T1, MAT1C (FaMAT1C)
T1 construct: gene MAT1; no tag removal described
Excerpt: LC-MS malonyltransferase assay, non-linear Michaelis-Menten fit on MAT1C (FaMAT1C)

[2] = tested on: T2, MAT4C1/S1 (FaMAT4C1)
T2 construct: gene MAT4; no tag removal described
Excerpt: LC-MS malonyltransferase assay, non-linear Michaelis-Menten fit on MAT4C1/S1 (FaMAT4C1)

[3] = tested on: T3, MAT1S (FaMAT1S)
T3 construct: gene MAT1; no tag removal described
Excerpt: LC-MS malonyltransferase assay, non-linear Michaelis-Menten fit on MAT1S (FaMAT1S)

[4] = tested on: T4, MAT2C1/S1 (MAT2S1)
T4 construct: gene MAT2; no tag removal described
Excerpt: LC-MS malonyltransferase assay, non-linear Michaelis-Menten fit on MAT2C1/S1 (MAT2S1)

[5] = tested on: T5, MAT2C2/S2 (MAT2S2)
T5 construct: gene MAT2; no tag removal described
Excerpt: LC-MS malonyltransferase assay, non-linear Michaelis-Menten fit on MAT2C2/S2 (MAT2S2)

[6] = acceptor, co-substrate malonyl-CoA
[7] = donor, co-substrate quercetin-3-glucoside

Row | SMILES | Km [1, 6] | Km [2, 6] | Km [3, 6] | Km [4, 6] | Km [5, 7] | Km [1, 7] | Km [4, 7] | Km [2, 7] | Km [3, 7] | Km [5, 6]
1 | OC[C@H]1O[C@@H](Oc2cc3c(O)cc(O)cc3[o+]c2-c2ccc(O)c(O)c2)[C@H](O)[C@@H](O)[C@@H]1O [Cyanidin‐3‐glucoside] | 17 ± 3 µM | 63 ± 30 µM | 11 ± 3 µM | – | – | – | – | – | – | –
2 | O=c1c(O[C@@H]2O[C@H](CO)[C@@H](O)[C@H](O)[C@H]2O)c(-c2ccc(O)cc2)oc2cc(O)cc(O)c12 [Kaempferol‐3‐glucoside] | 150 ± 40 µM | 250 ± 80 µM | 300 ± 60 µM | 790 ± 300 µM | – | – | – | – | – | –
3 | CC(C)(COP(=O)(O)OP(=O)(O)OC[C@H]1O[C@@H](n2cnc3c(N)ncnc32)[C@H](O)[C@@H]1OP(=O)(O)O)[C@@H](O)C(=O)NCCC(=O)NCCSC(=O)CC(=O)O [Malonyl‐CoA] | – | – | – | – | 24 ± 20 µM | 700 ± 200 µM | 22 ± 10 µM | 410 ± 200 µM | 450 ± 200 µM | –
4 | OC[C@H]1O[C@@H](Oc2cc3c(O)cc(O)cc3[o+]c2-c2ccc(O)cc2)[C@H](O)[C@@H](O)[C@@H]1O [Pelargonidin‐3‐glucoside] | 270 ± 100 µM | 390 ± 200 µM | 400 ± 200 µM | – | – | – | – | – | – | –
5 | O=c1c(O[C@@H]2O[C@H](CO)[C@@H](O)[C@H](O)[C@H]2O)c(-c2ccc(O)c(O)c2)oc2cc(O)cc(O)c12 [Quercetin‐3‐glucoside] | 310 ± 100 µM | 220 ± 100 µM | 300 ± 100 µM | 180 ± 50 µM | – | – | – | – | – | 180 ± 60 µM
